From ChEMBL document CHEMBL1201862, “PubChem BioAssay data set” (2004)
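Results reflect a 48-hour exposure of cells in 96-well plates to compound at five concentrations. The concentration for 50% growth inhibition is given as GI50.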 Activity calls are given as the source filed them. Cut-off read from the data, not from the text of the source: active = GI50 up to about 1.1 µM and inactive = higher.

Assays:
Test in all cases: inhibition of tumour cell growth, NCI panel, 48 h
[1] = test system: BT-549
[2] = test system: CAKI-1
[3] = test system: DU-145
[4] = test system: HCC 2998
[5] = test system: HCT-116
[6] = test system: MDA-MB-231
[7] = test system: MDA-N
[8] = test system: Malme-3M
[9] = test system: NCI-H23
[10] = test system: RPMI-8226
[11] = test system: RXF 393
[12] = test system: SF-268
[13] = test system: SF-295
[14] = test system: SK-MEL-5
[15] = test system: SR
[16] = test system: SW-620
[17] = test system: UACC-62
[18] = test system: HL-60
[19] = test system: HOP-62
[20] = test system: SK-MEL-28

Measured: GI50

O=c1[nH]nc(Cc2ccccc2)n1/N=C/c1c(O)ccc2ccccc12
inactive: [1] 82.4 µM | [2] 28.2 µM | [3] 57 µM | [4] 33.4 µM | [5] 20.2 µM | [6] 19.7 µM | [7] 54.6 µM | [8] 20.9 µM | [9] 27.2 µM | [10] 19.8 µM | [11] 22.3 µM | [12] 24.6 µM | [13] 26.9 µM | [14] 18.6 µM | [15] 21.3 µM | [16] 43.5 µM | [17] 29.2 µM

[N-]=[N+]=C(C(=O)CN1CCCC1=O)S(=O)(=O)c1ccccc1
inactive: [1] > 100 µM | [3] > 100 µM | [4] > 100 µM | [5] > 100 µM | [18] > 100 µM | [19] > 100 µM | [6] > 100 µM | [7] > 100 µM | [8] > 100 µM | [9] > 100 µM | [10] > 100 µM | [11] > 100 µM | [12] > 100 µM | [13] > 100 µM | [20] > 100 µM | [14] > 100 µM | [15] > 100 µM | [16] > 100 µM | [17] > 100 µM

O=C(O)c1ccc2c(c1)CC1(C2)Cc2cc3c(cc2C1=O)CCC3 (centres undefined)
inactive: [1] > 100 µM | [3] > 100 µM | [4] > 100 µM | [5] > 100 µM | [18] > 100 µM | [19] > 100 µM | [6] > 100 µM | [7] > 100 µM | [8] > 100 µM | [9] > 100 µM | [10] > 100 µM | [11] 73.5 µM | [12] 46.8 µM | [13] 93.3 µM | [20] > 100 µM | [14] 93.8 µM | [15] > 100 µM | [16] > 100 µM | [17] > 100 µM

OCCN(C1=NCCN1)/[N+](=C\c1ccccn1)[CH-]c1ccccn1
inactive: [1] > 100 µM | [2] > 100 µM | [3] > 100 µM | [4] > 100 µM | [5] > 100 µM | [18] > 100 µM | [19] > 100 µM | [6] > 100 µM | [7] > 100 µM | [8] > 100 µM | [9] > 100 µM | [10] 12.1 µM | [12] > 100 µM | [13] > 100 µM | [20] > 100 µM | [14] > 100 µM | [15] 8.87 µM | [16] > 100 µM | [17] > 100 µM
